From patent US20040024024A1, “Aromatic sulfone hydroxamates and their use as protease inhibitors” (priority 2001, published 2004)
pIC50, pKi: −log10 of the molar value. Where “and” joins values, the source holds several entries; their conditions need not be identical. Identical values can stand only once. Counter-ions that a name gives are not always drawn. Each block holds one compound with its values, some of them ahead of it.

Tests used:
Human recombinant MMP-1 = target: T1, Human recombinant MMP-1 (Homo sapiens, UniProt P03956); test: In vitro MMP inhibition, IC50 determination (fluorogenic substrate I); assay type: biochemical
T1 construct: made in house; host or cells: MMP-1-transfected HT-1080 cells (spent media)
T1 sequence (P03956 100-469): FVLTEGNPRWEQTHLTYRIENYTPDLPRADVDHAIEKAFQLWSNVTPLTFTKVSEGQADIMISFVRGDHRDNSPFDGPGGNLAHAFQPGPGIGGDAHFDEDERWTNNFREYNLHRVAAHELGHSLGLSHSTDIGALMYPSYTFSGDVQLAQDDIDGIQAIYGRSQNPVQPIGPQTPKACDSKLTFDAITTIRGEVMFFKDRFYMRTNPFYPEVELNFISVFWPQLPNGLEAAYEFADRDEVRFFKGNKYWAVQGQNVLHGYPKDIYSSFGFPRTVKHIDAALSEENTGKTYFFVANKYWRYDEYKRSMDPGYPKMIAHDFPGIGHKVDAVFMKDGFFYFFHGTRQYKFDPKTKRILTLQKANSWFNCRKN
Outline: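 APMA- or trypsin-activated enzyme, purified from spent media of transfected HT-1080 cells, incubated at room temperature with 4 μM MCA-Pro-Leu-Gly-Leu-Dpa-Ala-Arg-NH2 and graded inhibitor in Tris buffer pH 7.5 (10 mM CaCl2, 0.05% Brij). Cleavage read by fluorescence (ex 328/em 415 nm); IC50 from fluorescence reduction versus inhibitor concentration.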

Human recombinant MMP-2 = target: T2, Human recombinant MMP-2 (Homo sapiens, UniProt P08253); test: In vitro MMP inhibition, Ki determination (fluorogenic substrate II); assay type: biochemical
T2 construct: made in house; host or cells: MMP-2-transfected p2AHT2 cells
T2 sequence (P08253 110-660): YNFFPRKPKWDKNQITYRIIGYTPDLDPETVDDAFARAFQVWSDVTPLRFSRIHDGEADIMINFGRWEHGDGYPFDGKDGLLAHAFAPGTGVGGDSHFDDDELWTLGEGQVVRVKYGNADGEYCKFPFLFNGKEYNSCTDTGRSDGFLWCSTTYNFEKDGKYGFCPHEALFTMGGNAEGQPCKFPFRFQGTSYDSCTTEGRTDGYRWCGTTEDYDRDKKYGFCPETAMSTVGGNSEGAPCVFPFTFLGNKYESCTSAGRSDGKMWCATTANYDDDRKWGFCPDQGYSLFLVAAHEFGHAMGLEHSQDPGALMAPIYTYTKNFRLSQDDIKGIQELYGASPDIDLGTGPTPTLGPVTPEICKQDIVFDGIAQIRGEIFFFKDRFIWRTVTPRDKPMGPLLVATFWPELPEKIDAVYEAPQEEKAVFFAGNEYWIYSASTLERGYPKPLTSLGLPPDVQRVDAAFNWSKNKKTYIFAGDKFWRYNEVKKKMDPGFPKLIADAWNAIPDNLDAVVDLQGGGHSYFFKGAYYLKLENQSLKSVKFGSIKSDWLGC
Protocol: Several hydroxamates and salts thereof were analyzed in in vitro assays to determine their ability to inhibit the MMP cleavage of peptide substrates. Inhibition (Ki) and IC50 constants were calculated from the assayed hydroxamate-MMP interactions.
Human recombinant MMP-1, MMP-2, MMP-9, MMP-13, and MMP-14 were used in this assay. All enzymes were prepared in Assignee's laboratories following usual laboratory procedures. Protocols for the preparation and use of these enzymes are available in the scientific literature. See, e.g., Enzyme Nomenclature (Academic Press, San Diego, Calif., 1992) (and the citations therein). See also, Frije et al., J. Biol. Chem., 26(24), 16766-73 (1994).
The MMP-2 proenzyme was purified by gelatin Sepharose chromatography from MMP-2-transfected p2AHT2 cells provided by Dr. Gregory Goldberg of Washington University (St. Louis, Mo.).
All MMPs were activated using 4-aminophenylmercuric acetate (“APMA”, Sigma Chemical, St. Louis, Mo.) or trypsin. MMP-9 also was activated using human recombinant MMP-3 (purified in Assignee's laboratory following standard cloning and purification techniques).
Two fluorogenic, methoxycoumarin-containing polypeptide substrates were used in the MMP inhibition assays:
MCA-ArgProLeuGlyLeuDpaAlaArgGluArgNH2 (II)
Here, “Dpa” is 3-(2,4-dinitrophenyl)-L-2,3-diaminopropionyl group, and “MCA” is 7-methoxycoumarin-4-yl acetyl. Substrate (I) was purchased from Baychem (Redwood City, Calif.), and substrate II was prepared Assignee's laboratory. Substrate I was used in the IC50 determination assays, while substrate II was used in the Ki determination assays. In the absence of MMP inhibitory activity, either substrate is cleaved at the Gly-Leu peptide bond. This cleavage separates the highly fluorogenic peptide from the 2,4-dinitrophenyl quencher, thus resulting in increase of fluorescent intensity.
The stock solutions of the assayed hydroxamates (or salts thereof) were prepared in 1% dimethyl sulfoxide (DMSO). These stock solutions were diluted in Buffer A (100 mM Tris-HCl, 100 mM NaCl, 10 mM CaCl2, 0.05% polyoxyethylene 23 lauryl ether, pH 7.5) to obtain solutions with different hydroxamate concentrations, i.e., assay solutions with different concentrations of the assayed MMP inhibitory compound. The experiment controls contained the same amount of Buffer A/DMSO as the assayed sample, but contained no hydroxamate (or salt thereof).
The assays from which the Ki determinations were made were performed as follows. The assayed hydroxamate samples were incubated in separate wells of untreated white polystyrene plates (Nunc Nalgene International, Rochester, N.Y.), and analyzed on a Tecan SpectraFlour Plus plate reader. The excitation wavelength was 330 nm, and the emission wavelength—420 nm. All samples (assayed hydroxamates and controls) were incubated in separate plate wells at room temperature for 1 hr in the presence of 4 μM of MMP substrate (II). In the absence of MMP inhibitory activity, substrate II was cleaved at the Gly-Leu bond resulting in an increase of relative fluorescence. Inhibition was observed as a reduced rate of this increase in relative fluorescence. The various hydroxamates were analyzed using a single low enzyme concentration with a single substrate concentration fixed at or below the Km. This protocol is a modification of method by Knight et al., FEBS Lett., 296(3), 263-266 (1992). Apparent inhibitory constants were determined by non-linear regression of reaction velocity as a function of inhibitor and enzyme concentration using Morrison's equation, as described by Kuzmic, Anal. Biochem. 286, 45-50 (2000). […] Since the substrate concentration was chosen to be at or below the Km, the apparent Ki's from this analysis were reported as Ki's without correction for the influence of substrate.

[1] = substrate (I) 4 μM, room temperature, values not in parenthesis
[2] = substrate (II) 4 μM, 1 hr room temperature, apparent Ki, values in parenthesis

SMILES: O=C(NO)C1(S(=O)(=O)c2ccc(OCCCc3nc(-c4ccc(OC(F)(F)F)cc4)no3)cc2)CCOCC1 [Example 31, tetrahydro-N-hydroxy-4-[[4-[3-[3[4-(trifluoromethoxy)phenyl]-1,2,4-oxadiazol-5-yl]propoxy]phenyl]sulfonyl]-2H-pyran-4-carboxamide]
pIC50 (Human recombinant MMP-1; [1]): < 5.00
pKi (Human recombinant MMP-2; [2]): 6.38

SMILES: O=C(NO)C1(S(=O)(=O)c2ccc(OCCCc3cccc(-c4ccc(F)cc4)c3)cc2)CCOCC1 [Example 39]
pKi (Human recombinant MMP-2; [2]): 5.79

pIC50 (Human recombinant MMP-1; [1]): < 5.00
pKi (Human recombinant MMP-2; [2]): 6.67
SMILES: O=C(NO)C1(S(=O)(=O)c2ccc(OCCc3cccc(-c4ccccn4)c3)cc2)CCOCC1 [Example 40]

pIC50 (Human recombinant MMP-1; [1]): < 5.00
pKi (Human recombinant MMP-2; [2]): 6.38
SMILES: CCN1CCC(C(=O)NO)(S(=O)(=O)c2ccc(OCCCc3nc(-c4ccc(OC(F)(F)F)cc4)no3)cc2)CC1 [Example 41, 1-ethyl-N-hydroxy 4-{[4-(3-{3-[4-(trifluoromethoxy)phenyl]-1,2,4-oxadiazol-5-yl}propoxy)phenyl]sulfonyl}piperidine-4-carboxamide Hydrochloride]

SMILES: COCCN1CCC(C(=O)NO)(S(=O)(=O)c2ccc(OCCCc3nc(-c4ccc(OC(F)(F)F)cc4)no3)cc2)CC1 [Example 42]
pIC50 (Human recombinant MMP-1; [1]): < 5.00
pKi (Human recombinant MMP-2; [2]): 6.73

pIC50 (Human recombinant MMP-1; [1]): < 5.00
pKi (Human recombinant MMP-2; [2]): 6.10
SMILES: CCN1CCC(C(=O)NO)(S(=O)(=O)c2ccc(OCCCc3cccc(-c4ccccc4)c3)cc2)CC1 [Example 46]

pKi (Human recombinant MMP-2; [2]): 7.72 and 7.33
SMILES: COCCN1CCC(C(=O)NO)(S(=O)(=O)c2ccc(OCCCc3cc(-c4ccc(F)cc4F)cs3)cc2)CC1 [Example 47, 4-[(4-{3-[4-(2,4-difluorophenyl)thien-2-l]propoxy}phenyl)sulfonyl]-N-hydroxy-1-(2-methoxyethyl)piperidine-4-carboxamide Hydrochloride]

pIC50 (Human recombinant MMP-1; [1]): < 5.00
pKi (Human recombinant MMP-2; [2]): 6.64
SMILES: COCCN1CCC(C(=O)NO)(S(=O)(=O)c2ccc(OCCCn3nnc(-c4ccc(OC(F)(F)F)cc4)n3)cc2)CC1 [Example 48]

pIC50 (Human recombinant MMP-1; [1]): < 5.00
pKi (Human recombinant MMP-2; [2]): 6.36
SMILES: O=C(NO)C1(S(=O)(=O)c2ccc(OCCCn3nnc(-c4ccc(OC(F)(F)F)cc4)n3)cc2)CCN(C2CC2)CC1 [Example 49]

pKi (Human recombinant MMP-2; [2]): 7.19
SMILES: NC(=O)c1cccc(OCCOc2ccc(S(=O)(=O)C3(C(=O)NO)CCOCC3)cc2)c1 [Example 54]

pKi (Human recombinant MMP-2; value in parenthesis): 6.53
SMILES: O=C(NO)C1(S(=O)(=O)c2ccc(OCCCc3cccc(-c4ccco4)c3)cc2)CCOCC1 [Example 97]

pKi (Human recombinant MMP-2; value in parenthesis): 7.02
SMILES: O=C1Nc2ccc(-c3noc(CCCOc4ccc(S(=O)(=O)C5(C(=O)NO)CCN(C6CC6)CC5)cc4)n3)cc21 [Example 142]

pKi (Human recombinant MMP-2; value in parenthesis): < 5.00
SMILES: O=C(NO)C1(S(=O)(=O)c2ccc(OCCCc3cccc(-c4ccc(OC(F)(F)F)cc4)c3)cc2)CCOCC1 [Example 147]

pKi (Human recombinant MMP-2; value in parenthesis): 6.67
SMILES: O=C(NO)C1(S(=O)(=O)c2ccc(OCCCc3cccc(-c4ccccn4)c3)cc2)CCOCC1 [Example 148]

pKi (Human recombinant MMP-2; value in parenthesis): 7.08
SMILES: O=C(NO)C1(S(=O)(=O)c2ccc(OCCCc3cccc(-c4ccncc4)c3)cc2)CCOCC1 [Example 149]

pKi (Human recombinant MMP-2; value in parenthesis): 5.63
SMILES: O=C(NO)C1(S(=O)(=O)c2ccc(OCCCc3cccc(-c4ccccc4Cl)c3)cc2)CCOCC1 [Example 162]

pKi (Human recombinant MMP-2; value in parenthesis): 6.01
SMILES: Cc1ccccc1-c1cccc(CCCOc2ccc(S(=O)(=O)C3(C(=O)NO)CCOCC3)cc2)c1 [Example 164]

pKi (Human recombinant MMP-2; value in parenthesis): < 5.00
SMILES: Cc1ccc(-c2cccc(CCCOc3ccc(S(=O)(=O)C4(C(=O)NO)CCOCC4)cc3)c2)cc1C [Example 165]

pKi (Human recombinant MMP-2; value in parentheses): 7.49
SMILES: O=C(NO)C1(S(=O)(=O)c2ccc(OCCCc3cncc(Br)c3)cc2)CCOCC1 [Example 522]

pKi (Human recombinant MMP-2; value in parentheses): 7.15
SMILES: O=C(COc1ccc(S(=O)(=O)C2(C(=O)NO)CCOCC2)cc1)c1cccc(-c2ccccc2)c1 [Example 563]

pKi (Human recombinant MMP-2; value in parentheses): 8.00
SMILES: O=C(CCCOc1ccc(S(=O)(=O)C2(C(=O)NO)CCOCC2)cc1)Nc1cccc(I)c1 [Example 570]

pKi (Human recombinant MMP-2; value in parentheses): 6.95
SMILES: O=C(NO)C1(S(=O)(=O)c2ccc(OCCCc3cccc(-n4ccnc4)c3)cc2)CCOCC1 [Example 574]

pKi (Human recombinant MMP-2; value in parentheses): 7.14
SMILES: O=C(NO)C1(S(=O)(=O)c2ccc(OCCCc3nc(-c4cccnc4)no3)cc2)CCOCC1 [Example 578]

pKi (Human recombinant MMP-2; value in parentheses): 7.68
SMILES: O=C(NO)C1(S(=O)(=O)c2ccc(OCCCc3nc(-c4ccccc4)no3)cc2)CCOCC1 [Example 584]

pIC50 (Human recombinant MMP-1; value outside parentheses): < 5.00
SMILES: CCN1CCC(C(=O)NO)(S(=O)(=O)c2ccc(OCCCSc3nc4ccccc4s3)cc2)CC1 [Example 591]

pKi (Human recombinant MMP-2; value in parentheses): 5.16
SMILES: O=C(NO)C1(S(=O)(=O)c2ccc(OCCCc3cccc(-c4ccc(C(F)(F)F)cc4)c3)cc2)CCOCC1 [Example 625]

pKi (Human recombinant MMP-2; value in parentheses): 5.40
SMILES: O=C(NO)C1(S(=O)(=O)c2ccc(OCCCc3cccc(-c4ccc5c(c4)OCCO5)c3)cc2)CCOCC1 [Example 627]

pKi (Human recombinant MMP-2; value in parentheses): 5.99
SMILES: O=C(NO)C1(S(=O)(=O)c2ccc(OCCCc3cccc(-c4ccc5ccccc5c4)c3)cc2)CCOCC1 [Example 629]

pKi (Human recombinant MMP-2; value in parentheses): 5.30
SMILES: O=C(NO)C1(S(=O)(=O)c2ccc(OCCCc3cccc(-c4csc5ccccc45)c3)cc2)CCOCC1 [Example 631]

pKi (Human recombinant MMP-2; value in parentheses): 5.34
SMILES: O=C(NO)C1(S(=O)(=O)c2ccc(OCCCc3cccc(-c4cc5ccccc5s4)c3)cc2)CCOCC1 [Example 633]

pKi (Human recombinant MMP-2; value in parentheses): 6.01
SMILES: O=C(NO)C1(S(=O)(=O)c2ccc(OCCCc3cccc(-c4coc5ccccc45)c3)cc2)CCOCC1 [Example 634]

pKi (Human recombinant MMP-2; value in parentheses): 5.33
SMILES: C=Cc1ccc(-c2cccc(CCCOc3ccc(S(=O)(=O)C4(C(=O)NO)CCOCC4)cc3)c2)cc1 [Example 635]

pKi (Human recombinant MMP-2; value in parentheses): 6.28
SMILES: O=C(NO)C1(S(=O)(=O)c2ccc(OCCCc3cccc(-c4ccccc4O)c3)cc2)CCOCC1 [Example 636]

pKi (Human recombinant MMP-2; value in parentheses): 5.09
SMILES: O=C(NO)C1(S(=O)(=O)c2ccc(OCCCc3cccc(-c4cccc5ccccc45)c3)cc2)CCOCC1 [Example 638]

pKi (Human recombinant MMP-2; value in parentheses): 6.30
SMILES: Cc1ccc(-c2cccc(CCCOc3ccc(S(=O)(=O)C4(C(=O)NO)CCOCC4)cc3)c2)s1 [Example 639]
